We go through 16 compounds from ChEMBL document CHEMBL1132503, “N'-[2-(2-thiophene)ethyl]-N'-[2-(5-bromopyridyl)] thiourea as a potent inhibitor of NNI-resistant and multidrug-resistant human immunodeficiency virus-1” (Bioorg Med Chem Lett, 1999).

The target of assay [1] is Human immunodeficiency virus type 1 reverse transcriptase (Human immunodeficiency virus 1, UniProt Q72547). The experiment in a line: (§1) Inhibition of recombinant reverse transcriptase (RT) in cell-free Quan-T-RT assay system.
Assay [2] addresses Human immunodeficiency virus type 1 reverse transcriptase (Human immunodeficiency virus 1) (UniProt Q72547). The assay is described as §1.
A short description of assay [3]: Ability to inhibit the replication of A17 (Y181C) strain of HIV-1 p24 antigen production in PBMC. To be noted: Homo sapiens. Type of assay: functional.
Assay [4] in a line: Ability to inhibit the replication of A17 variant (Y181C,K103N) strain of HIV-1 p24 antigen production in PBMC. In kind it is functional, Homo sapiens.
Assay [5] is described as follows: Ability to inhibit the replication of RT-MDR (V106A) strain of HIV-1 p24 antigen production in PBMC. In kind it is functional. To be noted: Homo sapiens.
Assay [6] is described as follows: Cytotoxic concentration was evaluated using microculture tetrazolium assay (MTA). Type of assay: functional. Particulars: Homo sapiens.
Assay [7] can be described thus: Ability to inhibit the replication of HTLV IIIb strain of HIV-1 p24 antigen production in PBMC. Type of assay: functional. Particulars: Homo sapiens.
Assay [8] in a line: Cytotoxicity was evaluated using microculture tetrazolium assay (MTA). Type of assay: functional. To be noted: Homo sapiens.

A value given as a limit tells only on which side of the number the result lay.

As usually defined, the IC50 is the point on the concentration scale where inhibition reaches its midpoint. A word on the IC90: it is the point of the concentration-response curve where the effect stands at 90%. As to `S=C(NCCc1ccc2c(c1)OCO2)Nc1ccc(Br)cn1`, the IC50 in assay [1] turned out to be 700 nM. Besides, in assay [2], the IC90 is greater than 100 µM.
As usually defined, the CC50 is the concentration at which the toxic effect on the cells reaches its halfway point. The low end stands for greater toxicity to the cells, the high end for lower toxicity to the cells. As to `Cc1cn([C@H]2C[C@H](N=[N+]=[N-])[C@@H](CO)O2)c(=O)[nH]c1=O` [ZIDOVUDINE], the IC50 in assay [1] was greater than 100000 nM; in assay [3] it was 6 nM; in assay [4] it was 0.004 µM; in assay [5], 200 nM. In assay [6], this compound yielded a CC50 greater than 100 µM.
For the compound `S=C(NCCc1ccco1)Nc1ccc(Br)cn1`, the IC50 in assay [1] stood at 1200 nM. Moreover, in assay [2], the IC90 is greater than 100 µM.
With `S=C(NCCc1cccs1)Nc1ccc(Br)cn1`, the IC50 in assay [1] was 800 nM; in assay [3] it was 48 nM; in assay [4], 3.3 µM; in assay [7], 30 nM; in assay [5], 4 nM. The compound also showed a CC50 in assay [6] greater than 100 µM. Also, in assay [2], the IC90 was determined as 15 µM.
For `Fc1ccccc1CC/N=C(\S)Nc1ccc(Br)cn1`, the IC50 in assay [3] is 200 nM; in assay [4], 41 µM; in assay [7] it was less than 1 nM; in assay [5], 5 nM. The CC50 in assay [8] was greater than 100 µM.
Consider `S=C(NCCc1ccccn1)Nc1ccc(Br)cn1` [TROVIRDINE], for which the IC50 is 600 nM in assay [1]; 500 nM in assay [3]; greater than 100 µM in assay [4]; 7 nM in assay [7]; 20 nM in assay [5]. Besides, in assay [6], the CC50 was greater than 100 µM. Moreover, the concentration for an effect of 90% (IC90) in assay [2] worked out at 12 µM.
As for `S=C(NCCc1c[nH]c2ccccc12)Nc1ccc(Br)cn1`, in assay [1], the IC50 was 900 nM. The IC90 in assay [2] is greater than 100 µM.
With `Cc1ccnc2c1NC(=O)c1cccnc1N2C1CC1` [NEVIRAPINE], the IC50 is greater than 100000 nM in assay [3], greater than 100 µM in assay [4], 34 nM in assay [7] and 5000 nM in assay [5]. This compound also displayed a CC50 in assay [6] of 10.5 µM.
For `S=C(NCCc1c[nH]cn1)Nc1ccc(Br)cn1`, in assay [2], the IC90 is greater than 100 µM.
On to `S=C(NCCN1CCOCC1)Nc1ccc(Br)cn1`, for which the IC50 in assay [1] is greater than 100000 nM. The IC90 in assay [2] was greater than 100 µM.
`CCOCn1c(Cc2ccccc2)c(C(C)C)c(=O)[nH]c1=O` [EMIVIRINE] registered an IC50 in assay [5] of 270 nM. The compound also showed a CC50 in assay [6] greater than 100 µM.
Take `S=C(NCCN1CCCC1)Nc1ccc(Br)cn1`: the IC50 in assay [1] amounted to 4900 nM. Further, the IC90 in assay [2] is greater than 100 µM.
`CC(C)Nc1cccnc1N1CCN(C(=O)c2cc3cc(NS(C)(=O)=O)ccc3[nH]2)CC1` [DELAVIRDINE]: the IC50 was 50000 nM in assay [3], greater than 100 µM in assay [4], 9 nM in assay [7] and 400 nM in assay [5]. The same compound came in with a CC50 in assay [6] of 3.6 µM.
Turning to `CN1CCCC1CC/N=C(\S)Nc1ccc(Br)cn1` (stereo unspecified), in assay [1], the IC50 is greater than 100000 nM. Also, the IC90 in assay [2] is greater than 100 µM.
For the compound `S=C(NCCN1CCCCC1)Nc1ccc(Br)cn1`, the IC50 was 600 nM in assay [1]; greater than 100000 nM in assay [3]; greater than 100 µM in assay [4]; 1 nM in assay [7]; greater than 100000 nM in assay [5]. In assay [6], this compound gave a CC50 greater than 100 µM.
For `S=C(NCCc1cnc[nH]1)Nc1ccc(Br)cn1`, the IC50 in assay [1] is greater than 100000 nM.
